Data taken from PubChem BioAssay AID328 (DTP/NCI, 2004).
Where “and” joins values, the source holds several entries; their conditions need not be identical. Identical values can stand only once. Inconclusive results and toxic doses are left out.

Test system: BDF1 mice, P388 leukemia ip, median survival T/C
Assay: NCI In Vivo Anticancer Drug Screen. Data for tumor model P388 Leukemia (intraperitoneal) in B6D2F1 (BDF1) mice
Conditions: endpoint: median survival time, higher = longer survival
How it was run: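 Transplantable tumour in mice; compound vs vehicle dosing; survival scored; ratio of treated to control reported.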

[1] = dose: 75.0 mg/kg/injection, schedule: Q01DX009 (ip), vehicle: saline with Tween-80
[2] = dose: 100.0 mg/kg/injection, schedule: Q04DX003 (ip), vehicle: Klucel (hydroxypropylcellulose) (HPC)
[3] = dose: 25.0 mg/kg/injection, schedule: Q01DX009 (ip), vehicle: saline with Tween-80
[4] = dose: 50.0 mg/kg/injection, schedule: Q01DX009 (ip), vehicle: saline with Tween-80
[5] = dose: 100.0 mg/kg/injection, schedule: Q01DX009 (ip), vehicle: saline with Tween-80
[6] = dose: 200.0 mg/kg/injection, schedule: Q01DX009 (ip), vehicle: saline with Tween-80
[7] = dose: 100.0 mg/kg/injection, schedule: Q04DX003 (ip), vehicle: saline with Tween-80
[8] = dose: 200.0 mg/kg/injection, schedule: Q04DX003 (ip), vehicle: saline with Tween-80
[9] = dose: 400.0 mg/kg/injection, schedule: Q04DX003 (ip), vehicle: saline with Tween-80
[10] = dose: 100.0 mg/kg/injection, schedule: Q04DX003 (ip), vehicle: saline
[11] = dose: 12.5 mg/kg/injection, schedule: Q01DX009 (ip), vehicle: Klucel (hydroxypropylcellulose) (HPC)
[12] = dose: 25.0 mg/kg/injection, schedule: Q01DX009 (ip), vehicle: Klucel (hydroxypropylcellulose) (HPC)
[13] = dose: 12.5 mg/kg/injection, schedule: Q01DX009 (ip), vehicle: water
[14] = dose: 200.0 mg/kg/injection, schedule: Q04DX003 (ip), vehicle: Klucel (hydroxypropylcellulose) (HPC)
[15] = dose: 400.0 mg/kg/injection, schedule: Q04DX003 (ip), vehicle: Klucel (hydroxypropylcellulose) (HPC)

`CCC(=O)N(c1ccccc1)c1ccccc1` was tested, and the T/C [1] was 99 % of control, the T/C (dose: 150.0 mg/kg/injection, schedule: Q01DX009 (ip), vehicle: saline with Tween-80) was 100 % of control and the T/C (dose: 300.0 mg/kg/injection, schedule: Q01DX009 (ip), vehicle: saline with Tween-80) was 108 % of control.

`CN(C)C(=O)CCCCC(=O)N(C)C` was tested, and the T/C (dose: 1.0 mg/kg/injection, schedule: Q01DX001 (ip), vehicle: saline) was 96 % of control, the T/C (dose: 2.0 mg/kg/injection, schedule: Q01DX001 (ip), vehicle: saline) was 110 % of control and the T/C (dose: 4.0 mg/kg/injection, schedule: Q01DX001 (ip), vehicle: saline) was 106 % of control. The T/C (dose: 8.0 mg/kg/injection, schedule: Q01DX001 (ip), vehicle: saline) was 102 % of control, the T/C (dose: 16.0 mg/kg/injection, schedule: Q01DX001 (ip), vehicle: saline) was 96 % of control and the T/C (dose: 32.0 mg/kg/injection, schedule: Q01DX001 (ip), vehicle: saline) was 100 % of control. The T/C (dose: 64.0 mg/kg/injection, schedule: Q01DX001 (ip), vehicle: saline) was 95 % of control and the T/C (dose: 128.0 mg/kg/injection, schedule: Q01DX001 (ip), vehicle: saline) was 102 % of control.

For `COc1cccc2c1cc([N+](=O)[O-])c1c(C(=O)O)cc3c(c12)OCO3`, the T/C (dose: 1.25 mg/kg/injection, schedule: Q01DX010 (ip), vehicle: water) was 100 % of control, the T/C (dose: 2.5 mg/kg/injection, schedule: Q01DX010 (ip), vehicle: water) was 118 % of control and the T/C (dose: 5.0 mg/kg/injection, schedule: Q01DX010 (ip), vehicle: other) was 86 % of control.

With `Cc1ccc(NCC(O)CN2CCOCC2)cc1` (configuration not stated) the T/C [2] was 108 % of control.

In the case of `NC(=S)N/N=C\c1nccc2c(N)cccc12`, the T/C (dose: 6.25 mg/kg/injection, schedule: Q01DX009 (ip), vehicle: saline with Tween-80) is reported as 186 % of control, the T/C (dose: 12.5 mg/kg/injection, schedule: Q01DX009 (ip), vehicle: saline with Tween-80) is reported as 191 % of control and the T/C [3] is reported as 195 % of control. For the same molecule, the T/C [4] was 91 % of control and the T/C [1] was 89 % of control.

`OCC1OC(Nc2ccccc2/C=N\O)C(O)C1O` (configuration not stated) was tested, and the T/C [5] was 111 % of control and the T/C [6] was 94 % of control.

In the case of `O=c1[nH]c(=S)c2c3c(sc2[nH]1)CCCC3`, the T/C (dose: 75.0 mg/kg/injection, schedule: Q04DX003 (ip), vehicle: saline sonified) is reported as 100 % of control, the T/C (dose: 150.0 mg/kg/injection, schedule: Q04DX003 (ip), vehicle: saline sonified) is reported as 100 % of control and the T/C (dose: 300.0 mg/kg/injection, schedule: Q04DX003 (ip), vehicle: saline sonified) is reported as 100 % of control.

`Cn1ccc2nncn2c1=O` was tested, and the T/C (dose: 100.0 mg/kg/injection, schedule: Q01DX001 (ip), vehicle: saline with Tween-80) was 115 % of control, the T/C (dose: 200.0 mg/kg/injection, schedule: Q01DX001 (ip), vehicle: saline with Tween-80) was 95 % of control and the T/C (dose: 400.0 mg/kg/injection, schedule: Q01DX001 (ip), vehicle: saline with Tween-80) was 98 % of control.

In the case of `CCCCCCOB(OCCCCCC)OCCCCCC`, the T/C (dose: 22.5 mg/kg/injection, schedule: Q01DX009 (ip), vehicle: saline with Tween-80) is reported as 94 % of control, the T/C (dose: 45.0 mg/kg/injection, schedule: Q01DX009 (ip), vehicle: saline with Tween-80) is reported as 97 % of control and the T/C (dose: 90.0 mg/kg/injection, schedule: Q01DX009 (ip), vehicle: saline with Tween-80) is reported as 102 % of control.

In the case of `O=C(NC(=O)c1c(F)cccc1F)Nc1nc(-c2ccccc2)cs1`, the T/C [3] is reported as 93 % of control, the T/C [4] is reported as 100 % of control and the T/C [5] is reported as 90 % of control.

For `CSc1nc2c(N)nc(N)nc2nc1C`, the T/C [7] was 100 % of control, the T/C [8] was 108 % of control and the T/C [9] was 108 % of control.

`N=Cc1c(O)[nH]c(=O)[nH]c1=O` was tested, and the T/C (dose: 100.0 mg/kg/injection, schedule: Q01DX009 (ip), vehicle: saline) was 109 % of control, the T/C [10] was 92 % of control and the T/C (dose: 200.0 mg/kg/injection, schedule: Q01DX009 (ip), vehicle: saline) was 109 % of control. The T/C (dose: 200.0 mg/kg/injection, schedule: Q04DX003 (ip), vehicle: saline) was 107 % of control, the T/C (dose: 400.0 mg/kg/injection, schedule: Q01DX009 (ip), vehicle: saline) was 118 % of control and the T/C (dose: 400.0 mg/kg/injection, schedule: Q04DX003 (ip), vehicle: saline) was 92 % of control.

With `CC(C)CC(=O)C1=C(O)C(Nc2ccccc2)=CC(=O)C1=Nc1ccccc1` the T/C [7] was 106 % of control, the T/C [8] was 118 % of control and the T/C [9] was 111 % of control.

For `CCOC(=O)C(Cc1ccc(N(CCCl)CCCl)cc1)NP1(=O)NCCCO1` (configuration not stated), the T/C (dose: 6.25 mg/kg/injection, schedule: Q01DX009 (ip), vehicle: Klucel (hydroxypropylcellulose) (HPC)) was 153 % of control, the T/C (dose: 9.0 mg/kg/injection, schedule: Q04DX003 (ip), vehicle: Klucel (hydroxypropylcellulose) (HPC)) was 169 % of control and the T/C (dose: 9.5 mg/kg/injection, schedule: Q04DX003 (ip), vehicle: Klucel (hydroxypropylcellulose) (HPC)) was 154 % of control. The T/C (dose: 12.0 mg/kg/injection, schedule: Q04DX003 (ip), vehicle: Klucel (hydroxypropylcellulose) (HPC)) was 209 % of control, the T/C [11] was 230 % of control and the T/C (dose: 14.5 mg/kg/injection, schedule: Q04DX003 (ip), vehicle: Klucel (hydroxypropylcellulose) (HPC)) was 166 % of control. The T/C (dose: 22.0 mg/kg/injection, schedule: Q04DX003 (ip), vehicle: Klucel (hydroxypropylcellulose) (HPC)) was 166 % of control, the T/C [12] was 230 % of control and the T/C (dose: 25.0 mg/kg/injection, schedule: Q04DX003 (ip), vehicle: Klucel (hydroxypropylcellulose) (HPC)) was 272 % of control. For the same molecule, the T/C (dose: 33.0 mg/kg/injection, schedule: Q04DX003 (ip), vehicle: Klucel (hydroxypropylcellulose) (HPC)) was 250 % of control and 212 % of control, the T/C (dose: 50.0 mg/kg/injection, schedule: Q04DX003 (ip), vehicle: Klucel (hydroxypropylcellulose) (HPC)) was 250 % of control and 181 % of control and the T/C (dose: 75.0 mg/kg/injection, schedule: Q04DX003 (ip), vehicle: Klucel (hydroxypropylcellulose) (HPC)) was 91 % of control.

For `CCN(CC)Cc1c(C)[nH]c2ccc(N(C)C)cc2c1=O`, the T/C (dose: 1.56 mg/kg/injection, schedule: Q01DX009 (ip), vehicle: water) was 86 % of control and 110 % of control, the T/C (dose: 3.12 mg/kg/injection, schedule: Q01DX009 (ip), vehicle: water) was 89 % of control and 100 % of control and the T/C (dose: 6.25 mg/kg/injection, schedule: Q01DX009 (ip), vehicle: water) was 89 % of control. For the same molecule, the T/C [11] was 99 % of control, the T/C [13] was 120 % of control and the T/C [12] was 108 % of control. The T/C (dose: 25.0 mg/kg/injection, schedule: Q04DX003 (ip), vehicle: saline) was 111 % of control, the T/C (dose: 50.0 mg/kg/injection, schedule: Q01DX009 (ip), vehicle: Klucel (hydroxypropylcellulose) (HPC)) was 99 % of control and the T/C (dose: 50.0 mg/kg/injection, schedule: Q04DX003 (ip), vehicle: saline) was 112 % of control. For the same molecule, the T/C [10] was 104 % of control and the T/C (dose: 200.0 mg/kg/injection, schedule: Q01DX009 (ip), vehicle: Klucel (hydroxypropylcellulose) (HPC)) was 106 % of control.

`COc1ccc(C2=CC(c3ccc(OC)c(OC)c3)c3c(c4ccccc4oc3=O)O2)cc1OC` (configuration not stated) was tested, and the T/C [13] was 98 % of control, the T/C (dose: 25.0 mg/kg/injection, schedule: Q01DX009 (ip), vehicle: water) was 100 % of control and the T/C (dose: 25.0 mg/kg/injection, schedule: Q04DX003 (ip), vehicle: water) was 97 % of control. For the same molecule, the T/C (dose: 50.0 mg/kg/injection, schedule: Q01DX009 (ip), vehicle: water) was 97 % of control, the T/C (dose: 50.0 mg/kg/injection, schedule: Q04DX003 (ip), vehicle: water) was 94 % of control and the T/C (dose: 100.0 mg/kg/injection, schedule: Q01DX009 (ip), vehicle: water) was 96 % of control and 97 % of control. For the same molecule, the T/C (dose: 200.0 mg/kg/injection, schedule: Q04DX003 (ip), vehicle: water) was 97 % of control, the T/C (dose: 400.0 mg/kg/injection, schedule: Q01DX009 (ip), vehicle: water) was 106 % of control and the T/C (dose: 400.0 mg/kg/injection, schedule: Q04DX003 (ip), vehicle: water) was 97 % of control.

For `Clc1cc(Cl)c(I)c(Cl)c1`, the T/C [5] was 92 % of control, the T/C [2] was 100 % of control and the T/C [6] was 89 % of control. For the same molecule, the T/C [14] was 100 % of control, the T/C (dose: 400.0 mg/kg/injection, schedule: Q01DX009 (ip), vehicle: saline with Tween-80) was 96 % of control and the T/C [15] was 91 % of control.

For `O=C(c1ccccc1)C1C(c2ccccc2)N1CCl` (configuration not stated), the T/C [2] was 113 % of control, the T/C [14] was 100 % of control and the T/C [15] was 100 % of control.
